Data from the NIST ThermoML archive (doi:10.1016/j.jct.2015.10.009).
± gives the expanded uncertainty stated by the source. Each block holds one molecule with its values, some of them ahead of it.

Key:
[1] = Liquid; for vapor or sublimation pressure: Closed cell (Static) method
[2] = refractive index (Na D-line) (dimensionless); settings: 298.15 K; 101.33 kPa; Liquid; Standard Abbe refractometry

- vapor or sublimation pressure ([1]; 272.78 K): 3476 ± 11 kPa
- vapor or sublimation pressure ([1]; 277.83 K): 3958 ± 12 kPa
- vapor or sublimation pressure ([1]; 282.87 K): 4487 ± 13 kPa
- vapor or sublimation pressure ([1]; 287.92 K): 5069 ± 13 kPa
- vapor or sublimation pressure ([1]; 292.95 K): 5705 ± 14 kPa
- vapor or sublimation pressure ([1]; 297.99 K): 6404 ± 16 kPa
- vapor or sublimation pressure ([1]; 303.03 K): 7176 ± 17 kPa
SMILES: O=C=O [carbon dioxide]

- refractive index [2]: 1.3724 ± 0.0004
- mass density ([1]; 298.15 K, 101.33 kPa, Vibrating tube method): 655.241 ± 0.26 kg/m3
SMILES: CCCCCC [hexane]

- vapor or sublimation pressure ([1]; 267.81 K): 2176 ± 9 kPa
- vapor or sublimation pressure ([1]; 272.86 K): 2497 ± 9 kPa
- vapor or sublimation pressure ([1]; 277.9 K): 2881 ± 10 kPa
- vapor or sublimation pressure ([1]; 282.96 K): 3269 ± 10 kPa
- vapor or sublimation pressure ([1]; 287.99 K): 3707 ± 11 kPa
- vapor or sublimation pressure ([1]; 292.02 K): 4084 ± 11 kPa
- vapor or sublimation pressure ([1]; 293.04 K): 4180 ± 12 kPa
- vapor or sublimation pressure ([1]; 297.07 K): 4605 ± 12 kPa
SMILES: FC(F)F [trifluoromethane]
